What all share (assay): inhibition of tumour cell growth, NCI panel, 48 h
Test [1] concerns T47D.
Test [2] relates to SNB-75.
Test [3] has as its system MDA-MB-435.
Test [4] concerns NCI-H522.
In test [5] the test system is 786-0.
Test [6] deals with HCT-116.
Test [7] concerns HOP-92.
The test system of test [8] is MDA-MB-231.
The test system of test [9] is COLO 205.
Test [10] deals with UO-31.
In test [11] the test system is RXF 393.
In test [12] the test system is CCRF-CEM.
In test [13] the test system is IGROV-1.
In test [14] the test system is SW-620.
Test [15] concerns OVCAR-4.
For test [16], the system named is NCI/ADR-RES.
Test [17] relates to U-251.
Test [18] relates to HCT-15.
Test [19] relates to KM12.
In test [20] the test system is BT-549.

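Cultured in 96-well plates, cells were exposed to test compound for 48 hours across five concentrations. GI50: concentration for 50% inhibition of growth.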 The source made the active and inactive calls. Cut-off read from the data, not from the text of the source: active = GI50 up to about 1.1 µM and inactive = higher.

For `O=[N+]([O-])C(=C(N1CCCCC1)N1CCCCC1)/C(Cl)=C(\Cl)Br`, the GI50 in [1] is 25.2 µM (inactive); in [2] it was 16.6 µM (inactive); in test [3] it was 20.5 µM (inactive); in test [4] it was 18.1 µM (inactive); in test [5], 23.9 µM (inactive); in [6], 14.2 µM (inactive). Moreover, the GI50 is 19.4 µM (inactive) in test [7]; 27.2 µM (inactive) in test [8]; 20.3 µM (inactive) in [9]; 34.5 µM (inactive) in [10]; 20.5 µM (inactive) in [11]; 11.1 µM (inactive) in [12]. Besides, the GI50 is 25.8 µM (inactive) in [13]; 15.6 µM (inactive) in [14]; 24 µM (inactive) in test [15]; 27.2 µM (inactive) in [16]; 18.7 µM (inactive) in test [17]; 16.4 µM in test [18]. Also, the GI50 is 23.1 µM (inactive) in [19] and 33.8 µM (inactive) in [20].
In the case of `O=[N+]([O-])c1ccccc1OCCOc1ccccc1[N+](=O)[O-]`, the GI50 in test [1], in [2], in test [3], in [4], in test [5] and in test [6] was > 100 µM (inactive) in each case. The GI50 in test [7] was 71.8 µM (inactive); in test [8], 96.2 µM (inactive); in test [9] it was > 100 µM (inactive); in test [10], > 100 µM (inactive); in test [11] it was > 100 µM (inactive); in test [12], > 100 µM (inactive). Further, the GI50 in test [13] is > 100 µM (inactive); in [14] it was > 100 µM (inactive); in test [15] it was > 100 µM (inactive); in test [16], > 100 µM (inactive); in test [17], > 100 µM (inactive); in test [18], above 100 µM. The GI50 in test [19] and in test [20] was > 100 µM (inactive) throughout.
On to `CN(CC(=O)O)Cc1c(O)c(Cl)cc(Cl)c1Cl`, for which the GI50 was 54.1 µM (inactive) in test [1]; 92.5 µM (inactive) in [2]; 74.8 µM (inactive) in test [3]; 27.8 µM (inactive) in [4]; 15.8 µM (inactive) in test [5]; 12.5 µM (inactive) in [6]. Further, the GI50 in test [7] is 23.4 µM (inactive); in [8] it was 45.2 µM (inactive); in test [9], 34.6 µM (inactive); in [10], 23.2 µM (inactive); in [11], 76.4 µM (inactive); in [12], 5.13 µM (inactive). For the same compound, the GI50 in [13] was 48.1 µM (inactive); in test [14], 40.5 µM (inactive); in test [15] it was 33.6 µM (inactive); in [16], 26.8 µM (inactive); in test [17], 17 µM (inactive); in test [18], 21.8 µM. For the same compound, the GI50 in test [19] was 31.2 µM (inactive); in [20] it was 75.5 µM (inactive).
Turning to `CC1(C)CN=C(Nc2cccc(C(F)(F)F)c2)S1`, the GI50 in [1], in test [2], in test [3], in test [4], in [5] and in [6] was > 100 µM (inactive) each time. For the same compound, the GI50 is > 100 µM (inactive) in [7]; 0.684 µM (active) in [8]; > 100 µM (inactive) in test [9]; > 100 µM (inactive) in test [10]; > 100 µM (inactive) in test [11]; > 100 µM (inactive) in test [12]. Besides, the GI50 was > 100 µM (inactive) in test [13]; > 100 µM (inactive) in test [14]; > 100 µM (inactive) in test [15]; > 100 µM (inactive) in test [16]; > 100 µM (inactive) in test [17]; above 100 µM in test [18]. The GI50 in test [19] and in test [20] was > 100 µM (inactive) each time.
For `C=CCNC1=C2C[C@@H](C)C[C@@H](OC)[C@H](OC(=O)CN(C)C)[C@H](C)/C=C(\C)[C@@H](OC(N)=O)[C@H](OC)/C=C\C=C(/C)C(=O)NC(=CC1=O)C2=O`, the GI50 in [1] was 4.82 µM (inactive); in test [2], 0.114 µM (active); in test [3], 0.042 µM (active); in test [4] it was 0.183 µM (active); in test [5] it was 0.671 µM (active); in test [6], 0.0871 µM (active). Further, the GI50 in test [7] is 6.12 µM (inactive); in [8] it was 2.56 µM (inactive); in [9] it was < 0.0126 µM (active); in [10], 0.757 µM (active); in test [11], 1.78 µM (inactive); in test [12] it was 3.08 µM (inactive). The GI50 was 0.0942 µM (active) in test [13]; 0.0228 µM (active) in test [14]; 3.41 µM (inactive) in [15]; 8.22 µM (inactive) in test [16]; 0.188 µM (active) in [17]; 0.535 µM in test [18]. Moreover, the GI50 in test [19] was 0.024 µM (active); in [20], 4.72 µM (inactive).
As to `O=C1CC(=O)NC(NN2C(=O)/C(=C/c3ccccc3)N=C2c2ccccc2)=N1`, the GI50 in test [1], in test [2], in test [3], in [4], in test [5] and in test [6] was > 100 µM (inactive) in each case. Also, the GI50 is > 100 µM (inactive) in test [7]; > 100 µM (inactive) in [8]; > 100 µM (inactive) in [9]; 32.9 µM (inactive) in [10]; > 100 µM (inactive) in test [11]; > 100 µM (inactive) in test [12]. Also, the GI50 in [13] was > 100 µM (inactive); in [14], > 100 µM (inactive); in [15], > 100 µM (inactive); in test [16], > 100 µM (inactive); in [17], > 100 µM (inactive); in test [18] it was above 100 µM. The figures for the GI50 in [19] and in test [20] were > 100 µM (inactive) and 26.6 µM (inactive), respectively.
Regarding `C=C1C(=O)O[C@@H]2C[C@@]3(C)CCCC(=C)[C@@H]3C[C@H]12.C=C1C(=O)O[C@@H]2C[C@@]3(C)CCC[C@H](C)C3=C[C@H]12`, the GI50 was 1.09 µM (active) in [1]; 1.91 µM (inactive) in test [2]; 1.54 µM (inactive) in [3]; 1.38 µM (inactive) in [4]; 1.43 µM (inactive) in test [5]; 1.41 µM (inactive) in test [6]. For the same compound, the GI50 in test [7] is 1.9 µM (inactive); in test [8], 2.38 µM (inactive); in [9], 1.55 µM (inactive); in [10], 1.59 µM (inactive); in test [11] it was 1.56 µM (inactive); in test [12] it was 1.51 µM (inactive). In addition, the GI50 in test [13] was 2.72 µM (inactive); in [14], 1.64 µM (inactive); in [15], 2.7 µM (inactive); in test [16], 1.96 µM (inactive); in test [17], 3.63 µM (inactive); in [18], 1.55 µM. For the same compound, the GI50 in [19] is 2.7 µM (inactive); in test [20], 1.45 µM (inactive).
With `S=c1[nH]c(=S)c2cc(Sc3ccc4[nH]c(=S)[nH]c(=S)c4c3)ccc2[nH]1`, the GI50 in [1] was 50.5 µM (inactive); in [2], 19.5 µM (inactive); in test [3], 53 µM (inactive); in [4], 34.8 µM (inactive); in test [5] it was 21.5 µM (inactive); in test [6], 48.1 µM (inactive). Moreover, the GI50 is 32.3 µM (inactive) in test [7]; 59.6 µM (inactive) in [8]; 26.9 µM (inactive) in test [9]; 26.9 µM (inactive) in [10]; 23.7 µM (inactive) in test [11]; 25.6 µM (inactive) in [12]. For the same compound, the GI50 in [13] is 30 µM (inactive); in [14], 48.4 µM (inactive); in test [15], 23.2 µM (inactive); in test [16], > 100 µM (inactive); in test [17], 33 µM (inactive); in test [18], 39.2 µM. Further, the GI50 was 24 µM (inactive) in test [19] and 31.2 µM (inactive) in test [20].
For the compound `O=C1c2cc([N+](=O)[O-])cnc2S(=O)(=O)N1c1ccc(Oc2ccccc2)cc1`, the GI50 in test [1], in test [2], in test [3], in test [4], in test [5] and in [6] was > 100 µM (inactive) in each case. For the same compound, the GI50 in [7] was > 100 µM (inactive); in test [8], > 100 µM (inactive); in test [9], > 100 µM (inactive); in [10], > 100 µM (inactive); in test [11], 34.2 µM (inactive); in [12], 39 µM (inactive). Further, the GI50 in test [13] was > 100 µM (inactive); in [14], > 100 µM (inactive); in [15] it was > 100 µM (inactive); in [16], > 100 µM (inactive); in test [17], > 100 µM (inactive); in test [18] it was above 100 µM. The GI50 in test [19] and in [20] was > 100 µM (inactive) throughout.
On to `CCOC(=O)C(NC(=O)c1ccccc1)(Nc1cc(C)on1)C(F)(F)F` (stereo not given), for which the GI50 in [1], in [2], in [3], in test [4], in test [5] and in [6] was > 100 µM (inactive) in each case. For the same compound, the GI50 in test [7] was > 100 µM (inactive); in test [8] it was 10.9 µM (inactive); in [9] it was > 100 µM (inactive); in test [10], > 100 µM (inactive); in [11] it was > 100 µM (inactive); in [12], > 100 µM (inactive). Moreover, the GI50 in [13] was > 100 µM (inactive); in [14], > 100 µM (inactive); in [15], > 100 µM (inactive); in test [16], > 100 µM (inactive); in test [17] it was > 100 µM (inactive); in test [18], above 100 µM. Also, the GI50 in test [19] and in test [20] was > 100 µM (inactive) in each case.

The values above are taken from ChEMBL document CHEMBL1201862, “PubChem BioAssay data set” (2004).
